The record followed here is US5114918A, “Endothelin antagonistic cyclic pentapeptides” (Banyu Pharmaceutical Co., Ltd., priority 1989, dated 1992).

The term inhibition denotes how much of the control response was suppressed.

Numbered stars: 1 amine (or outer) side, 2 acyl side, 3 side chain; on linkers, the order of the positions; unused ones are H or OH. Square brackets hold non-standard residues; d marks the D form. Peptide text beside a SMILES is read from it. * marks the point of attachment. Gly(N-CH2CH2-imidazol-4-yl) = O=C(O)CNCCc1c[nH]cn1; X4 = O=C1Nc2ccccc2C1C[C@@H](N[*:1])C(=O)[*:2]; X1 = CC[C@](N[*:1])(C(=O)[*:2])c1cccs1; dPhg = N[C@@H](C(=O)O)c1ccccc1; dNle = CCCC[C@@H](N)C(=O)O; dNva = CCC[C@@H](N)C(=O)O; NMeA = CN[C@@H](C)C(=O)O; Nle = CCCC[C@H](N)C(=O)O; Orn = NCCC[C@H](N)C(=O)O; For = O=C*

The first assay concerns the target T1, endothelin receptor (membrane of smooth muscle tissue of porcine aorta) (Sus scrofa, UniProt Q29010).
T1 construct: from tissue; host or cells: smooth muscle tissue of porcine aorta (membrane fraction)
T1 sequence (Q29010 21-427): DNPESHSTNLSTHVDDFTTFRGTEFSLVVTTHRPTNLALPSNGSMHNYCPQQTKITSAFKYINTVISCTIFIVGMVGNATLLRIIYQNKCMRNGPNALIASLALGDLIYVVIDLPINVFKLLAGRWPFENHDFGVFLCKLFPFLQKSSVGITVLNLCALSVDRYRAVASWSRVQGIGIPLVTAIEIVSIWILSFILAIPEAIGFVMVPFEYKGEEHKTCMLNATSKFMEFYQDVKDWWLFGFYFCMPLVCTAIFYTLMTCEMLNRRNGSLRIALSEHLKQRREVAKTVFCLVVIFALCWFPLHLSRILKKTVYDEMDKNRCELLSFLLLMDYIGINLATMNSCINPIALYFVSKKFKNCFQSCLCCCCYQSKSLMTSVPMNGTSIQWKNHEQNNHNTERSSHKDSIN
The assay is described as follows: Endothelin binding inhibition test (125I-endothelin-1, porcine aorta smooth muscle membrane). As to conditions: 1.1 μM of the test compound; porcine aorta smooth muscle membrane; 25° C, 4 hours. The protocol: Endothelin binding inhibition test
The smooth muscle tissue of porcine aorta was homogenized in a buffer solution of 10 mM MOPS, pH 7.4, at 4° C. by a polytron. To the homogenate, sucrose was added to a concentration of 20%, and the mixture was centrifuged at 1,000×g for 15 minutes, and the supernatant was further centrifuged at 10,000×g for 15 minutes. The supernatant thereof was further centrifuged at 90,000×g for 40 minutes. The membrane precipitate thereby obtained was suspended in a buffer solution of 5 mM HEPES/Tris, pH 7.4, at a concentration of 25 mg/ml.
Then, 16 μl of this membrane suspension was added to 340 μl of 50 mM Tris/HCl buffer, pH 7.4, containing 10 μM calcium chloride, 10 μM magnesium chloride, 0.1 mM PMSF, 1 μM pepstatin A, 2 μM leupeptin, 1 mM 1,10-phenanthroline and 0.1% bovine serum albumin. To this suspension, 4 μl of (A) endothelin-1 (for nonspecific binding: 0.2 μM as the final concentration), (B) buffer solution A (for total control binding), or (C) a test compound (1.1 μM as the final concentration), was added. Further, to each suspension, 40 μl of ^125 I-endothelin-1 (12000-18000 cpm) was added. These mixtures were incubated at 25° C for 4 hours, then subjected to filtration on a glass filter GF/C and then washed with 5 mM HEPES/Tris, pH 7.4, containing 0.3% bovine serum albumin. Then, the radioactivity trapped by the glass filter was measured, and the ^125 I-endothelin-1 binding inhibition D (%) at 1.1 μM of the test compound was determined by the following equation. [formula] Each test was performed in triplicate.
For “cyclo(-DTrp-DCys(O3 Na)-Pro-DaIle-Leu-) [Example 43]”, the “125I-endothelin-1 binding inhibition, Inhibition (%)” value stood at 85%.
With “cyclo(-DTrp-DCys(O3 Na)-Pro-DThg-Leu-) [Example 76]”, the “125I-endothelin-1 binding inhibition, Inhibition (%)” value turned out to be 84%.

Staying with this assay, now noted: 1.1 μM of the test compound; porcine aorta smooth muscle membrane; 25° C, 4 hours; read-out: 125I-endothelin-1 binding inhibition, Inhibition (%).
With `CC(C)C[C@@H]1NC(=O)[C@@H](c2cccs2)NC(=O)CN(CC(=O)O)C(=O)[C@@H](CC(=O)O)NC(=O)[C@@H](Cc2c[nH]c3ccccc23)NC1=O` [Example 83, cyclo(-DTrp-DAsp-CmGly-DThg-Leu-)], the inhibition at 1.1 µM worked out at 82%.
On to `CC[C@@H](C)[C@H]1NC(=O)[C@@H]2CCCN2C(=O)[C@@H](CC(=O)O)NC(=O)[C@@H](Cc2c[nH]c3ccccc23)NC(=O)[C@H](CC(C)C)NC1=O` [Example 31, cyclo(-DTrp-DAsp-Pro-DIle-Leu-)] (cyclo(L[dW][dD]P[dI])), for which the inhibition at 1.1 µM was determined as 80%.
On the same count and under the same terms, in the case of `CC(C)C[C@@H]1NC(=O)[C@@H](C(C)C)NC(=O)[C@H](C)NC(=O)[C@@H](CCC(=O)O)NC(=O)[C@@H](Cc2c[nH]c3ccccc23)NC1=O` [Example 7, cyclo(-DTrp-DGlu-Ala-DVal-Leu-)] (cyclo(A[dV]L[dW][dE])) it was 27%; in that of `CC(C)C[C@@H]1NC(=O)[C@@H](CC(=O)O)NC(=O)[C@@H](Cc2c[nH]c3ccccc23)NC(=O)[C@H](CC(C)C)NC(=O)[C@@H](C(C)C)NC1=O` [Example 6, cyclo(-DTrp-DAsp-Leu-DVal-Leu-)] (cyclo(L[dV]L[dW][dD])), 72%.
In the case of `CC(C)[C@H]1NC(=O)[C@@H]2CCCN2C(=O)[C@@H](CC(=O)O)NC(=O)[C@@H](Cc2c[nH]c3ccccc23)NC(=O)[C@H](Cc2c[nH]cn2)NC1=O` [Example 84, cyclo(-DTrp-DAsp-Pro-DVal-His)] (cyclo(H[dW][dD]P[dV])), the inhibition at 1.1 µM stood at 43%.
In the case of `CC(C)C[C@@H]1NC(=O)[C@@H](c2ccccc2)NC(=O)[C@@H]2CCCN2C(=O)[C@@H](CC(=O)O)NC(=O)[C@@H](Cc2c[nH]c3ccccc23)NC1=O` [Example 34, cyclo(-DTrp-DAsp-Pro-DPhg-Leu-)] (cyclo(L[dW][dD]P[dPhg])), the inhibition at 1.1 µM was determined as 83%.
On the same count and under the same terms, in the case of `CC(C)[C@H]1NC(=O)[C@H](CC(=O)O)NC(=O)[C@@H](CC(=O)O)NC(=O)[C@@H](Cc2c[nH]c3ccccc23)NC(=O)[C@H](C)NC1=O` [Example 38, cyclo(-DTrp-DAsp-Asp-DVal-Ala-)] (cyclo(A[dW][dD]D[dV])) it was 21%.
Turning to `CC(C)C[C@@H]1NC(=O)[C@@H](C(C)C)NC(=O)[C@@H]2CCCN2C(=O)[C@@H](CC(=O)O)NC(=O)[C@@H](CC2C(=O)Nc3ccccc32)NC1=O` (stereo partly drawn) [Example 88, cyclo(-DTrp(O)-Dsp-Pro-DVal-Leu-)] (cyclo(L[X4][dD]P[dV])), the inhibition at 1.1 µM came out at 78%.
On to `CC(C)C[C@@H]1NC(=O)[C@@H](C(C)C)NC(=O)[C@H](CCC(=O)O)NC(=O)[C@@H](CC(=O)O)NC(=O)[C@@H](Cc2c[nH]c3ccccc23)NC1=O` [Example 23, cyclo(-DTrp-DAsp-Glu-DVal-Leu-)] (cyclo(E[dV]L[dW][dD])), for which the inhibition at 1.1 µM amounted to 72%.
`CC(C)C[C@@H]1NC(=O)[C@@H](C(C)C)NC(=O)[C@H](CC(=O)O)NC(=O)[C@@H](CCC(=O)O)NC(=O)[C@@H](Cc2c[nH]c3ccccc23)NC1=O` [Example 9, cyclo(-DTrp-DGlu-Asp-DVal-Leu-)] (cyclo(D[dV]L[dW][dE])): the inhibition at 1.1 µM stood at 30%.
As to `CCCC[C@H]1NC(=O)[C@@H]2CCCN2C(=O)[C@@H](CC(=O)O)NC(=O)[C@@H](Cc2c[nH]c3ccccc23)NC(=O)[C@H](CC(C)C)NC1=O` [Example 33, cyclo(-DTrp-DAsp-Pro-DNle-Leu-)] (cyclo(L[dW][dD]P[dNle])), the inhibition at 1.1 µM came to 77%.
As for `CCC[C@H]1NC(=O)[C@@H]2CCCN2C(=O)[C@@H](CC(=O)O)NC(=O)[C@@H](Cc2c[nH]c3ccccc23)NC(=O)[C@H](CC(C)C)NC1=O` [Example 35, cyclo(-DTrp-DAsp-Pro-DNva-Leu-)] (cyclo(L[dW][dD]P[dNva])), the inhibition at 1.1 µM amounted to 79%.
In the case of `CCCC[C@@H]1NC(=O)[C@@H](CC(=O)O)NC(=O)[C@@H](Cc2c[nH]c3ccccc23)NC(=O)[C@H](CC(C)C)NC(=O)[C@@H](C(C)C)NC1=O` [Example 46, cyclo(-DTrp-DAsp-Nle-DVal-Leu-)] (cyclo(L[dW][dD][Nle][dV])), the inhibition at 1.1 µM came to 75%.
Consider `CC(C)C[C@@H]1NC(=O)[C@@H](C(C)C)NC(=O)[C@H](Cc2ccccc2)NC(=O)[C@@H](CC(=O)O)NC(=O)[C@@H](Cc2c[nH]c3ccccc23)NC1=O` [Example 48, cyclo(-DTrp-DAsp-Phe-DVal-Leu-)] (cyclo(F[dV]L[dW][dD])), for which the inhibition at 1.1 µM came out at 71%.
Same read-out and setting: in the case of `CC[C@H](C)[C@@H]1NC(=O)[C@@H](C(C)C)NC(=O)[C@@H]2CCCN2C(=O)[C@@H](CC(=O)O)NC(=O)[C@@H](Cc2c[nH]c3ccccc23)NC1=O` [Example 40, cyclo(-DTrp-DAsp-Pro-DVal-Ile-)] (cyclo(I[dW][dD]P[dV])) it was 66%; in that of `CC(C)C[C@@H]1NC(=O)[C@@H](C(C)C)NC(=O)[C@H](CO)NC(=O)[C@@H](CC(=O)O)NC(=O)[C@@H](Cc2c[nH]c3ccccc23)NC1=O` [Example 26, cyclo(-DTrp-DAsp-Ser-DVal-Leu-)] (cyclo(L[dW][dD]S[dV])), 75%.
Still for that read-out and setting: in the case of `CC(C)C[C@@H]1NC(=O)[C@@H](C(C)C)NC(=O)[C@H](Cc2ccc(O)cc2)NC(=O)[C@@H](CC(=O)O)NC(=O)[C@@H](Cc2c[nH]c3ccccc23)NC1=O` [Example 16, cyclo(-DTrp-DAsp-Tyr-DVal-Leu-)] (cyclo(L[dW][dD]Y[dV])) it was 77%; in that of `CC[C@]1(c2cccs2)NC(=O)[C@@H]2CCCN2C(=O)[C@@H](CC(=O)O)NC(=O)[C@@H](Cc2c[nH]c3ccccc23)NC(=O)[C@H](CC(C)C)NC1=O` [Example 82, cyclo(-DTrp-DAsp-Pro-DEtg-Leu-)] (cyclo(L[dW][dD]P[X1])), 81%.
`CC(C)C[C@@H]1NC(=O)[C@@H](C(C)C)NC(=O)CN(CCc2c[nH]cn2)C(=O)[C@@H](CC(=O)O)NC(=O)[C@@H](Cc2c[nH]c3ccccc23)NC1=O` [Example 85, cyclo(-DTrp-DAsp-IeGly-DVal-Leu-)] (cyclo(L[dW][dD][Gly(N-CH2CH2-imidazol-4-yl)][dV])): the inhibition at 1.1 µM was 82%.
Still for that read-out and setting: in the case of `CC(C)C[C@@H]1NC(=O)[C@@H](C(C)C)NC(=O)[C@H](CS)NC(=O)[C@@H](CC(=O)O)NC(=O)[C@@H](Cc2c[nH]c3ccccc23)NC1=O` [Example 25, cyclo(-DTrp-DAsp-Cys-DVal-Leu-)] (cyclo(C[dV]L[dW][dD])) it was 74%.
With `CC(C)C[C@@H]1NC(=O)[C@@H]([C@H](C)O)NC(=O)[C@H](C)NC(=O)[C@@H](CC(=O)O)NC(=O)[C@@H](Cc2c[nH]c3ccccc23)NC1=O` [Example 29, cyclo(-DTrp-DAsp-Ala-DThr-Leu-)] (cyclo(A[dT]L[dW][dD])), the inhibition at 1.1 µM is 15%.
With `CC(C)C[C@@H]1NC(=O)[C@@H](C(C)C)NC(=O)[C@H](C)N(C)C(=O)[C@@H](CC(=O)O)NC(=O)[C@@H](Cc2c[nH]c3ccccc23)NC1=O` [Example 13, cyclo(-DTrp-DAsp-MeAla-DVal-Leu-)] (cyclo(L[dW][dD][NMeA][dV])), the inhibition at 1.1 µM turned out to be 85%.
On to `CC(C)C[C@@H]1NC(=O)[C@@H](C(C)C)NC(=O)[C@H](Cc2c[nH]c3ccccc23)NC(=O)[C@@H](CC(=O)O)NC(=O)[C@@H](Cc2c[nH]c3ccccc23)NC1=O` [Example 17, cyclo(-DTrp-DAsp-Trp-DVal-Leu-)] (cyclo(L[dW][dD]W[dV])), for which the inhibition at 1.1 µM worked out at 75%.
As to `CC(C)C[C@@H]1NC(=O)[C@@H](C(C)C)NC(=O)[C@H](CCCN)NC(=O)[C@@H](CC(=O)O)NC(=O)[C@@H](Cc2c[nH]c3ccccc23)NC1=O` [Example 20, cyclo(-DTrp-DAsp-Orn-DVal-Leu-)] (cyclo(L[dW][dD][Orn][dV])), the inhibition at 1.1 µM amounted to 65%.
As to `CC(C)C[C@@H]1NC(=O)[C@@H](C(C)C)NC(=O)[C@H](CCCCNC=O)NC(=O)[C@@H](CC(=O)O)NC(=O)[C@@H](Cc2c[nH]c3ccccc23)NC1=O` [Example 57, cyclo(-DTrp-DAsp-Lys(CHO)-DVal-Leu-)] (cyclo(K(For)[dV]L[dW][dD])), the inhibition at 1.1 µM was determined as 65%.
